Calls of active or inactive are those of the source.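 The calls were made as follows: active = compounds whose peak USP7 inhibition across the dose series reached 30% or more; inactive = the rest.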

The assay concerns the target Ubiquitin carboxyl-terminal hydrolase 7 (Homo sapiens) (UniProt Q93009). The experiment in a line: Biochemical concentration-response for ubiquitin-specific peptidase 7 DUB inhibitors, verifying primary hits (AID 1645861). The following applies: purified USP7, Ub-rhodamine cleavage fluorescence, 60 min.

Chain of Ubiquitin carboxyl-terminal hydrolase 7 (Homo sapiens) (Q93009 whole entry, looked up): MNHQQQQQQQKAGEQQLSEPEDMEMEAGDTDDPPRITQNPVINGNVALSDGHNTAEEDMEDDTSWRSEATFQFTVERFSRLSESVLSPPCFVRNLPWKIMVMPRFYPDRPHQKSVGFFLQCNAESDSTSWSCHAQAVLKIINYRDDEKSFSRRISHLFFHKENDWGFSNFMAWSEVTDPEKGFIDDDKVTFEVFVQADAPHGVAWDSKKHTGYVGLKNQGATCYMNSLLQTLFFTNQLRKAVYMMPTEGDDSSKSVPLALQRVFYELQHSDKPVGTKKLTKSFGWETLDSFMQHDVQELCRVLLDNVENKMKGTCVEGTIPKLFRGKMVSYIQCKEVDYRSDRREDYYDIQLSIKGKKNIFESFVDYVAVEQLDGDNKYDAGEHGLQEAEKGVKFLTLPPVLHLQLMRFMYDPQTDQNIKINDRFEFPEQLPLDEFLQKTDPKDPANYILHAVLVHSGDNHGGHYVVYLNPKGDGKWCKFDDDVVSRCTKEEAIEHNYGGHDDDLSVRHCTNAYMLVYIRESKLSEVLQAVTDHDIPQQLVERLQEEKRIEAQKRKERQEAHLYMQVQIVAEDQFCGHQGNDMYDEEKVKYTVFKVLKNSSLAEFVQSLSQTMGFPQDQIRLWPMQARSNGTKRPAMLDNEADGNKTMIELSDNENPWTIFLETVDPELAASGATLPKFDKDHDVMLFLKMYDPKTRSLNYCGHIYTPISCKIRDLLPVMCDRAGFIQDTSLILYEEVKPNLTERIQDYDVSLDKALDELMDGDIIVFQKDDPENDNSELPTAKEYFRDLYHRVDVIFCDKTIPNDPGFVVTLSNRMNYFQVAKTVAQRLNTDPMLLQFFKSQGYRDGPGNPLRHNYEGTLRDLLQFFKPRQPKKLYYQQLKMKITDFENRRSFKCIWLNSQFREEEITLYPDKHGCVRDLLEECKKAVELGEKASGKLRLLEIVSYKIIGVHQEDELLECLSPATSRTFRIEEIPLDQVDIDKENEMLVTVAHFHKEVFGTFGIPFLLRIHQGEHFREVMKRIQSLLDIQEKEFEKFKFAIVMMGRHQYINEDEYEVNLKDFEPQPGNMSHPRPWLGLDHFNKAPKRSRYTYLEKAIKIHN

Usually IC50 stands for the concentration needed to halve the response being measured. For the compound `O=C(NC(Cc1ccccc1)c1nc2ccccc2[nH]1)C1CC1` (centres undefined), the IC50 is > 50 µM (inactive).
With `CN1C(=O)COc2cc(-c3noc(C(=O)NCc4ccc(F)cc4)n3)ccc21`, the IC50 is > 50 µM (inactive).
In the case of `Cc1nn(-c2ccc(F)cc2)c(C)c1S(=O)(=O)N1CCN(c2ccccn2)CC1` it was > 50 µM (inactive); in that of `Cn1c2ccccc2c(=O)c2c(=O)n(Cc3ccccc3)c(-c3ccco3)nc21`, > 50 µM (inactive).
In the case of `O=C1CC(c2ccco2)Cc2[nH]c(=O)c(-c3nc(-c4ccc(Cl)cc4)cs3)cc21` (centres undefined) it was 28.8 µM.
In the case of `Nc1c(-c2nc(-c3ccccc3Cl)no2)nnn1-c1ccc(Cl)cc1` it was > 50 µM (inactive); in that of `CCOC(=O)N1CCN(C(=O)c2ccc(NCc3ccc(F)cc3)c(S(=O)(=O)Nc3cccc(C(F)(F)F)c3)c2)CC1`, > 50 µM (inactive); in that of `Cc1ccc(-c2cc(C(F)F)n3ncc(C(=O)Nc4ccc(O)cc4)c3n2)cc1`, > 50 µM (inactive).
Turning to `Cc1ccc(CNC(=O)CCCn2c(=O)c3sccc3n(CC(=O)Nc3cc(Cl)ccc3C)c2=O)cc1`, the IC50 is > 50 µM (inactive).
As to `O=C(NCc1ccc2c(c1)OCO2)c1cn(-c2cccc(Cl)c2)nn1`, the IC50 is > 50 µM (inactive).
Turning to `O=C1C(=O)N(c2nc3ccc(F)cc3s2)C(c2ccc(F)cc2)/C1=C(\O)c1ccc(F)cc1` (centres undefined), the IC50 was 30.6 µM.
In the case of `O=C(CSc1nnc2n(-c3ccccc3)c(=O)c3ccccc3n12)c1ccc(F)cc1` it was > 50 µM (inactive).
Turning to `O=c1[nH]c(C2CCN(S(=O)(=O)c3ccc(S(=O)(=O)NC4CCCCC4)cc3)CC2)nc2c1nnn2Cc1c(F)cccc1Cl`, the IC50 was > 50 µM (inactive).
Under `CCCCCC(=O)C(CCCC)c1oc(=O)c(CCCC)c(O)c1CCCC` (centres undefined) stands > 50 µM (inactive); under `O=C(Nc1ccc(-c2cn3ccsc3n2)cc1)c1ccc(Cl)c([N+](=O)[O-])c1`, 39.5 µM; under `COc1cccc(NC(=O)Cn2cc(C(=O)c3ccc(C)cc3)c(=O)c3cc(Cl)ccc32)c1`, > 50 µM (inactive).
Under `O=C1Cc2ccccc2C(=O)N1c1ccc2c(c1)OCO2` stands > 50 µM (inactive); under `O=C1c2c(O)cccc2C2(Oc3cccc4cccc(c34)O2)C2OC12` (centres undefined), > 50 µM (inactive); under `COc1ccc(C(=O)COC(=O)c2ccccc2NS(=O)(=O)c2ccc(O)c([N+](=O)[O-])c2)cc1`, 49.3 µM.
Consider `O=C1CC(c2nc3ccccc3n2CCOc2ccc(Cl)cc2)CN1c1ccccc1` (centres undefined), for which the IC50 is > 50 µM (inactive).
For the compound `C[C@@H]1OC2=C(C(=O)c3cccc(O)c3C2=O)[C@H](O)[C@@H]1O`, the IC50 was > 50 µM (inactive).
In the case of `O=C(NCc1ccc2c(c1)OCO2)c1[nH]nc2c1COc1ccccc1-2` it was > 50 µM (inactive); in that of `CCOc1ccc(-n2c(SCC(=O)Nc3ccc(C)cc3)nnc2-c2c[nH]c3ccccc23)cc1`, > 50 µM (inactive).
In the case of `NS(=O)(=O)c1cccc(NC(=O)/C=C/c2cn(-c3ccccc3)nc2-c2cccc([N+](=O)[O-])c2)c1` it was > 50 µM (inactive); in that of `O=C(Cn1c(=O)n(-c2ccc(CC(=O)NC3CCCC3)cc2)c(=O)c2ccccc21)Nc1ccccc1[N+](=O)[O-]`, > 50 µM (inactive); in that of `Cn1c(=O)[nH]c2nncnc2c1=O`, > 50 µM (inactive).
In the case of `CCn1cc2c(n1)c(=O)n(Cc1ccccc1)c(=O)n2CC(=O)Nc1ccc(OC)cc1` it was > 50 µM (inactive); in that of `Cc1nc(-c2noc(-c3cccc(F)c3)n2)cn1CC(=O)Nc1ccccc1`, > 50 µM (inactive); in that of `Cc1nc(C(=O)NC2(O)C(=O)c3ccccc3C2=O)cs1`, > 50 µM (inactive).
Turning to `Cc1ccc(Nc2nc3c(S(=O)(=O)c4ccccc4)nnn3c3ccccc23)c(C)c1`, the IC50 is 48 µM.
Under `Cc1sc2ccn(C)c(=O)c2c1C(=O)NC1CCCC1` stands > 50 µM (inactive); under `Cc1cccc(C)c1NC(=O)CN1C(=O)CC(c2ccccc2)=Nc2ccccc21`, > 50 µM (inactive).
In the case of `O=C(CCCCn1c(=O)c2ccccc2n(CC(=O)Nc2ccc3c(c2)OCCO3)c1=O)NCc1ccco1` it was > 50 µM (inactive); in that of `Oc1cccc2c(-c3ccc(O)c4c(O)cccc34)ccc(O)c12`, > 50 µM (inactive); in that of `COc1ccc(-c2ccc3cc(C(=O)O)ccc3c2)cc1C12CC3CC(CC(C3)C1)C2`, > 50 µM (inactive).
In the case of `NC(=O)c1ccccc1NC(=O)COc1ccc2c(c1)oc(=O)c1ccccc12` it was > 50 µM (inactive); in that of `Cc1ccc(C(=O)NC(C)c2ccccc2)cc1NC(=O)c1nsc2ccccc12` (centres undefined), > 50 µM (inactive).
Regarding `Cc1sc(NC(=O)Cn2nnc3ccccc32)nc1-c1ccc2c(c1)CCN2C(=O)c1ccccc1F`, the IC50 was > 50 µM (inactive).
In the case of `CCCCCCCCCC(CCCCCCCCCC(=O)O)O[C@H]1O[C@@H](COC(C)=O)[C@H](O)[C@@H](O)[C@H]1OC(=O)CC(=O)O` (some centres undefined), the IC50 is > 50 µM (inactive).
Under `O=C(Cn1c(-c2ccccc2)ncc(C(=O)NC2CC2)c1=O)Nc1ccccc1` stands > 50 µM (inactive).
`O=C(COc1ccccc1-c1nnc(-c2ccccc2)o1)NCCc1ccco1`: the IC50 is > 50 µM (inactive).
In the case of `CC(NC(=O)c1nc2n(n1)-c1ccccc1S(=O)(=O)N2)c1cc2ccccc2o1` (centres undefined) it was > 50 µM (inactive); in that of `CC1=C(C)C(N(c2ccccc2)c2ccccc2)N(CCC(C)C)C1=O` (centres undefined), > 50 µM (inactive); in that of `O=C1c2c(O)ccc(O)c2C2(Oc3cccc4cccc(c34)O2)C2OC12` (centres undefined), > 50 µM (inactive).
Under `CCOC(=O)c1ccc(Oc2sccc2[N+](=O)[O-])cc1` stands 10.7 µM; under `CCOc1ccc(-c2nnc(-c3cnc4onc(C5CCCC5)c4c3)o2)cc1`, > 50 µM (inactive); under `N#Cc1cccc(NC(=O)Nc2cccn(Cc3ccccc3F)c2=O)c1`, > 50 µM (inactive).
Under `Cn1c(CCNC(=O)c2[nH]nc3c2CCc2ccccc2-3)nc2ccccc21` stands > 50 µM (inactive); under `O=C1Nc2ccccc2C(=O)C1C(c1ccc(Cl)cc1)C1C(=O)Nc2ccccc2C1=O` (centres undefined), 44.8 µM.
Turning to `COC(=O)c1ccc(N2CCN(C(C)=O)CC2)c(NC(=O)COc2ccc([N+](=O)[O-])cc2)c1`, the IC50 is > 50 µM (inactive).
In the case of `O=C(CC1C(=O)Nc2nc3ccccc3n21)Nc1cccc2ccccc12` (centres undefined), the IC50 was > 50 µM (inactive).
In the case of `Cc1ccc(NC(=O)Cc2nnc3cc(-c4nc(C)no4)ccn23)cc1` it was 45.4 µM; in that of `O=C(CCCc1nnc2c(=O)n(-c3cccc(F)c3)ccn12)NCc1ccc(Cl)cc1`, > 50 µM (inactive); in that of `NS(=O)(=O)c1ccc(CNC(=O)c2ccc(Cl)c(S(=O)(=O)Nc3cc(Cl)ccc3Cl)c2)cc1`, > 50 µM (inactive).
Under `CCc1noc(-c2ccn3c(CC(=O)Nc4ccccc4C)nnc3c2)n1` stands > 50 µM (inactive).
In the case of `CC(C)Cc1ccc(-c2cc(-c3ccc(C(F)(F)F)cc3)c(C#N)c(=O)[nH]2)cc1` it was > 50 µM (inactive).
In the case of `CCCCCCCc1cc(OC(=O)c2c(CCCCCCC)cc(O)cc2O[C@@H]2O[C@H](CO)[C@@H](O)[C@H](O)[C@H]2O)cc(O)c1C(=O)O`, the concentration for half-maximal inhibition (IC50) is 9.94 µM.
In the case of `CCOC(=O)C1CCN(C(=O)c2ccc3c(c2)NC(=O)C2CCCN32)CC1` (centres undefined) it was > 50 µM (inactive); in that of `Cc1cc(C(=O)N2CCOCC2)c(C)n1-c1ccc(O)cc1`, > 50 µM (inactive); in that of `Cc1cc(=O)n2c3c(c4c(cc13)c(CO)cc(=O)n4C)OC2`, > 50 µM (inactive).
In the case of `CCCn1cc(C(=O)N2CCC3(CC2)CC2(CO3)Nc3ccccc3-n3cccc32)c(C)n1` (centres undefined) it was > 50 µM (inactive); in that of `Cc1ccc(S(=O)(=O)Nc2ccccc2C(=O)Nc2nc3ccc(Br)cc3s2)cc1`, 10 µM; in that of `O=C(CSc1ncnc2c1oc1ccccc12)NCCc1ccccc1`, > 50 µM (inactive).
`O=C(Cn1c(=O)n(Cc2ccccc2)c(=O)c2ncccc21)NCc1ccccc1Cl`: the IC50 was 43.6 µM.
In the case of `COC(=O)c1c(OC)cc2c(c1C)Oc1c(Cl)c(O)c(Cl)c(C)c1C(=O)O2` it was > 50 µM (inactive).
In the case of `O=C1C=C(O)c2c(O)cccc2C1=O` it was > 50 µM (inactive).
Under `CCC1OC(O)(C(C)C(O)C(C)C2OC(=O)/C(C)=C/C(C)=CC(C)C(O)C(C)C/C(C)=C/C=C/C2OC)CC(OC(=O)/C=C/C(=O)NC2=C(O)CCC2=O)C1C` (centres undefined) stands 23.2 µM; under `COc1ccc([N+](=O)[O-])cc1NC(=O)COC(=O)c1ccc2[nH]c3c(c2c1)CCCC3`, > 50 µM (inactive); under `Oc1cccc2nc3c(O)cccc3nc12`, > 50 µM (inactive).
In the case of `COc1ccc(-c2nc3c(c(=O)c4ccccc4n3C)c(=O)n2Cc2ccco2)cc1`, the 50% inhibitory concentration (IC50) was 46.9 µM.
Under `C[C@H](Cc1cc2c(cc1O)OCO2)[C@@H](C)Cc1cc2c(cc1O)OCO2` stands > 50 µM (inactive); under `C[C@@H]1CO[C@@H]2C3=C(C(=O)C=CC3=O)[C@H]3OC(=O)[C@@H]4CCC5[C@@H]1CCC52C34` (some centres undefined), > 50 µM (inactive).
Under `Nc1ccc(C(=O)OCC(=O)NC2CCCc3ccccc32)cc1[N+](=O)[O-]` (centres undefined) stands > 50 µM (inactive); under `CCOc1ccc(-c2noc(-c3nn(-c4cccc(OC)c4)ccc3=O)n2)cc1`, > 50 µM (inactive).

Values taken from PubChem BioAssay AID1645861 (Buhrlage Lab, Dana-Farber Cancer Institute and Novartis …, 2021).
